{"source": "patent US8591958B2", "about": "“Concentrated hydrogen peroxide disinfecting solutions” (priority 2008, dated 2013)", "origin": "cited, not measured here", "test_system": "Staphylococcus aureus", "note": "Where two headings read alike, the source gives them in different places."}
{"compound": "OO", "note": "[hydrogen peroxide]", "values": [{"measurement": "time required to disinfect surfaces contaminated with Staphylococcus aureus", "setting": "0.1% w/w aqueous solution", "value": "about 60 minutes"}, {"measurement": "time required to disinfect surfaces contaminated with Staphylococcus aureus", "setting": "25.8% w/w aqueous solution, same test conditions", "value": "about 20 seconds"}]}
